Laboratory results: patent US7465814B2, “Sulfonate compound and fluorescent probe using the same” (priority 2003, dated 2008)

How the values were obtained:
[1] = Reactivity with superoxide and glutathione (FIG. 4); type: biochemical; conditions: for selectivity (specificity), superoxide versus glutathione, FIG. 4: same conditions as 1-3 Superoxide-selectivity (2)
Protocol: (§1) Moreover, in other conditions than those of the above-described tests, reactivity of all of the compounds 1a to 1d with H2O2, other various kinds of nucleophilic agents, reducing agents and the like also was tested, respectively. More specifically, fluorescent responses of 1a to 1d with respect to a XO-HPX system, a XO-HPX-SOD system, H2O2, ascorbic acid, 1,4-hydroquinone, propylamine, diethylamine, glucose, esterase, a cytochrome P450 reductase+NADPH system, and a diaphorase+NADH system were measured, respectively. Operational processes thereof will be described below. Firstly, 1a to 1d and the above-described reagents were dissolved in HEPES of 10 mM having a pH of 7.4 so as to prepare solutions, respectively. Next, a 96 wellmicroplate was provided, where any of the solutions of 1a to 1d (25 μM, 170 μL) was poured into each of the wells, and furthermore, 30 μL of a blank solution or 30 μL of the solution of the reagent to be reacted therewith was added thereto. Final concentrations of the solutions in the wells were adjusted so that concentrations of the solutions of 1a to 1d respectively could be 21.3 μM, that of XO could be 13.1 mU/mL, those of HPX, H2O2, ascorbic acid, 1,4-hydroquinone, propylamine, diethylamine, glucose, NADPH and NADH respectively could be 50 μM, that of cytochrome P450 reductase could be 68 mU/mL, that of diaphorase could be 65 mU/mL, and that of esterase could be 0.5 U/mL, respectively. Then, after they reacted in the wells at 37° C. for 10 minutes, fluorescent responses were measured respectively. Fluorescence intensity measurement was conducted by using an ETC-272 Peltier thermostatted single cell holder (trade name) manufactured by JASCO Corporation or a SpectraMax GeminiEM fluorescence plate reader (trade name) manufactured by Molecular Devices Corporation provided with a FP-750 spectrofluorometer (trade name) manufactured by JASCO Corporation, and by setting excitation wavelengths and emission wavelengths so that those of 1a, 1b and 1c respectively could be 485 nm and 515 nm, and those of 1d respectively could be 511 nm and 540 nm.
(§2) The reactivity of each of the compounds 1d, 5a, 6a, 7 and 8a with respect to superoxide and glutathione (GSH) that is a kind of thiol was tested under the same conditions as those of [1-3. Superoxide-selectivity (2)] in Example 1. […] A vertical axis thereof denotes a fluorescence intensity, which is represented in % of control.

[2] = Responses to the compounds listed in Table 1; type: biochemical; conditions: same conditions as Example 1
Protocol: as §1, §2

[3] = Fluorescence response to thiophosphonate group (FIG. 8); type: biochemical; conditions: for response to thiol group in thiophosphonate group: γ-S-ATP and adenosine monothiophosphate (S-AMP); for sensitivity of γ-S-ATP detection relative to 8a: similar tests
Source text: Moreover, a capability of the sulfonate compound of the present invention as a fluorescent probe for mercapto compounds other than thiol (a compound in which a —SH group is bonded to a carbon atom) was examined. […]

[4] = Capability as superoxide-detecting fluorescent probe (reactivity with superoxide); type: biochemical; conditions: tested similarly to the compound 1d
Protocol: Then, by mainly using the compound 1d as a testing compound, the capability thereof as a superoxide-selective fluorescent probe was evaluated, and moreover, a test in a cell system also was conducted. These tests will be described below.
Thus, it is thought that each compound synthesized from a combination of: a phenolic colorant; and a 2,4-dinitrobenzenesulfonyl group, a 4-trifluoromethyl-2-nitrobenzenesulfonyl group or a 4-nitrobenzenesulfonyl group can be used as a superoxide-detecting fluorescent probe similarly. An example of the usage thereof will be shown in Scheme 8 below. Furthermore, it can be expected that a compound for a fluorescent probe having characteristics that are suitable for its application purpose can be designed and developed freely, by designing the compound of the present invention freely within the limitation defined by the general formula (I) and using the fluorescence mechanism developed by the inventors of the present invention, without being limited to the above-described combinations. Examples of the application purpose of the compound of the present invention are varied, including an application to a faintly coloring technique using superoxide.

[5] = Fluorescent response to XO-HPX system, 96-well microplate (Table 1); type: biochemical; conditions: relative fluorescence intensity, blank = 10, probe 21.3 μM, 10 minutes; for fluorescent response, XO—HPX: XO 13.1 mU/mL, HPX 50 μM, HEPES pH 7.4, 37° C.; for fluorescent response, XO—HPX—SOD: XO-HPX with SOD, 37° C.
Protocol: as §1

[6] = Fluorescent response to H2O2 (Table 1); type: biochemical; conditions: relative fluorescence intensity, blank = 10; probe 21.3 μM, H2O2 50 μM, 37° C., 10 minutes
Protocol: as §1

[7] = Fluorescent response to ascorbic acid (Table 1); type: biochemical; conditions: relative fluorescence intensity, blank = 10; probe 21.3 μM, ascorbic acid 50 μM, 37° C., 10 minutes
Protocol: as §1

[8] = Fluorescent response to 1,4-hydroquinone (Table 1); type: biochemical; conditions: relative fluorescence intensity, blank = 10; probe 21.3 μM, 1,4-hydroquinone 50 μM, 37° C., 10 minutes
Protocol: as §1

[9] = Fluorescent response to propylamine (Table 1); type: biochemical; conditions: relative fluorescence intensity, blank = 10; probe 21.3 μM, propylamine 50 μM, 37° C., 10 minutes
Protocol: as §1

[10] = Fluorescent response to diethylamine (Table 1); type: biochemical; conditions: relative fluorescence intensity, blank = 10; probe 21.3 μM, diethylamine 50 μM, 37° C., 10 minutes
Protocol: as §1

[11] = Fluorescent response to glucose (Table 1); type: biochemical; conditions: relative fluorescence intensity, blank = 10; probe 21.3 μM, glucose 50 μM, 37° C., 10 minutes
Protocol: as §1

[12] = test system: esterase; assay: Fluorescent response to esterase (Table 1); type: biochemical; conditions: relative fluorescence intensity, blank = 10; probe 21.3 μM, esterase 0.5 U/mL, 37° C., 10 minutes
Protocol: as §1

[13] = Voltammetry measurement; type: physicochemical; conditions: CH3CN—H2O (3:1) containing Et4NClO4
[14] = test system: neutrophils
Protocol: Moreover, a toxicity of the compound 1d with respect to the neutrophils was evaluated by estimating cell viability by a trypan blue dyeing method. More specifically, the neutrophils (1.0×10^5 cells) were incubated at 37° C. for 120 minutes in a glass test tube coated with human serum albumin, in the presence of both of the compound 1d (6.25 μM) and PMA (0.16 μM), in the presence of either of them, and in the absence of them, respectively. Then, cell viability after the incubation with respect to cell viability before the incubation was measured.

In the case of `Cc1cc(=O)oc2cc(OS(=O)(=O)c3ccc([N+](=O)[O-])cc3[N+](=O)[O-])ccc12` [Compound 7], the “selectivity (specificity), superoxide versus glutathione, FIG. 4” value [1] is reported as “excellent mercapto compound-selectivity”, the “response with respect to each of the compounds listed in Table 1” value (from here on “response with respect to each”) [2] is reported as “almost no response” and the “response to thiol group in thiophosphonate group” value [3] is reported as “responded to a thiol group in a so-called thiophosphonate group”.

For `O=c1ccc2nc3ccc(OS(=O)(=O)c4ccc([N+](=O)[O-])cc4[N+](=O)[O-])cc3oc-2c1` [Compound 5a], the “deprotection by superoxide into the corresponding fluorochrome” value (“deprotection” below) [4] was “deprotected by superoxide”, the “selectivity (specificity), superoxide versus glutathione, FIG. 4” value [1] was “excellent mercapto compound-selectivity” and the “response with respect to each” value [2] was “almost no response”. The “response to thiol group in thiophosphonate group” value [3] was “responded to a thiol group in a so-called thiophosphonate group”.

For `O=c1cc(C(F)(F)F)c2ccc(OS(=O)(=O)c3ccc(C(F)(F)F)cc3[N+](=O)[O-])cc2o1` [Compound 6b], the “deprotection” value [4] was “deprotected by superoxide”.

In the case of `Cc1c2oc3c(C)c(OS(=O)(=O)c4ccc([N+](=O)[O-])cc4[N+](=O)[O-])ccc3c(-c3ccccc3C(=O)O)c-2ccc1=O` [Compound 8c], the response to glutathione [1] is reported as “responded to glutathione with high sensitivity”, the “response with respect to each” value [2] is reported as “almost no response” and the “sensitivity of γ-S-ATP detection relative to 8a” value [3] is reported as “sensitivity still higher than that of 8a”.

In the case of `O=C(O)c1ccccc1-c1c2cc(F)c(=O)c(F)c-2oc2c(F)c(OS(=O)(=O)c3ccc([N+](=O)[O-])cc3)c(F)cc12` [Compound 4b], the “deprotection” value [4] is reported as “deprotected by superoxide”.

For `O=c1ccc2nc3ccc(OS(=O)(=O)c4ccc(C(F)(F)F)cc4[N+](=O)[O-])cc3oc-2c1` [Compound 5b], the “deprotection” value [4] was “deprotected by superoxide”.

With `O=C1OC2(c3cc(Cl)c(OS(=O)(=O)c4ccc([N+](=O)[O-])cc4[N+](=O)[O-])cc3Oc3cc(OS(=O)(=O)c4ccc([N+](=O)[O-])cc4[N+](=O)[O-])c(Cl)cc32)c2ccccc21` [Compound 1b] the “fluorescent response, XO—HPX” value [5] was 288, the “fluorescent response, XO—HPX—SOD” value [5] was 22 and the “fluorescent response, H2O2” value [6] was 11. The “fluorescent response, ascorbic acid” value [7] was 11, the “fluorescent response, 1,4-hydroquinone” value [8] was 11 and the “fluorescent response, propylamine” value [9] was 10. The “fluorescent response, diethylamine” value [10] was 10, the “fluorescent response, glucose” value [11] was 10 and the “fluorescent response, esterase” value [12] was 20. The cathode response [13] was “about −0.5 V vs SCE”.

In the case of `CCCCCCCCCCCCCC(=O)O[C@@H]1[C@@H](C)[C@@]2(O)[C@@H](C=C(CO)C[C@]3(O)C(=O)C(C)=C[C@@H]23)[C@@H]2C(C)(C)[C@]12OC(C)=O` [PMA, phorbol myristate acetate, reference compound], the “toxicity with respect to the neutrophils” value ([14]; incubation of 120 minutes) is reported as “did not show any significant toxicity” and the “cell viability after the incubation with respect to before the incubation” value ([14]; substance only (1d 6.25 μM or PMA 0.16 μM), 1.0×10^5 neutrophils, 37° C., 120 minutes) is reported as 93%.

For `O=C1OC2(c3cc(F)c(OS(=O)(=O)c4ccc([N+](=O)[O-])cc4[N+](=O)[O-])cc3Oc3cc(OS(=O)(=O)c4ccc([N+](=O)[O-])cc4[N+](=O)[O-])c(F)cc32)c2ccccc21` [Compound 1c], the “fluorescent response, XO—HPX” value [5] was 797, the “fluorescent response, XO—HPX—SOD” value [5] was 48 and the “fluorescent response, H2O2” value [6] was 11. For the same compound, the “fluorescent response, ascorbic acid” value [7] was 11, the “fluorescent response, 1,4-hydroquinone” value [8] was 10 and the “fluorescent response, propylamine” value [9] was 10. For the same compound, the “fluorescent response, diethylamine” value [10] was 10, the “fluorescent response, glucose” value [11] was 10 and the “fluorescent response, esterase” value [12] was 23. The cathode response [13] was “about −0.5 V vs SCE”.

With `O=C(O)c1ccccc1-c1c2cc(F)c(=O)c(F)c-2oc2c(F)c(OS(=O)(=O)c3ccc(C(F)(F)F)cc3[N+](=O)[O-])c(F)cc12` [Compound 4a] the “deprotection” value [4] was “deprotected by superoxide”.

In the case of `O=C1OC2(c3ccc(OS(=O)(=O)c4ccc([N+](=O)[O-])cc4[N+](=O)[O-])cc3Oc3cc(OS(=O)(=O)c4ccc([N+](=O)[O-])cc4[N+](=O)[O-])ccc32)c2ccccc21` [Compound 1a], the “fluorescent response, XO—HPX” value [5] is reported as 70, the “fluorescent response, XO—HPX—SOD” value [5] is reported as 12 and the “fluorescent response, H2O2” value [6] is reported as 10. For the same compound, the “fluorescent response, ascorbic acid” value [7] was 10, the “fluorescent response, 1,4-hydroquinone” value [8] was 10 and the “fluorescent response, propylamine” value [9] was 10. The “fluorescent response, diethylamine” value [10] was 11, the “fluorescent response, glucose” value [11] was 10 and the “fluorescent response, esterase” value [12] was 17. For the same compound, the cathode response [13] was “about −0.5 V vs SCE”.

In the case of `Cc1cc2c(-c3ccccc3C(=O)O)c3cc(C)c(=O)cc-3oc2cc1OS(=O)(=O)c1ccc([N+](=O)[O-])cc1[N+](=O)[O-]` [Compound 8b], the response to glutathione [1] is reported as “responded to glutathione with high sensitivity”, the “response with respect to each” value [2] is reported as “almost no response” and the “sensitivity of γ-S-ATP detection relative to 8a” value [3] is reported as “sensitivity still higher than that of 8a”.

For `O=C1OC2(c3ccccc31)c1cc(F)c(OS(=O)(=O)c3ccc(C(F)(F)F)cc3[N+](=O)[O-])c(F)c1Oc1c2cc(F)c(OS(=O)(=O)c2ccc(C(F)(F)F)cc2[N+](=O)[O-])c1F` [Compound 3], the “deprotection” value [4] was “deprotected by superoxide”.
